Literature values in patent publication US9492404B2, “Compositions and methods for treatment of taupathy” (Revalesio Corporation, priority 2010, dated 2016).

Tested on: primary progressive MS
Details: 943 patients with primary progressive MS

Substance: Glatiramer acetate
- progression of disability and the disease: failed to halt
